The text below walks through data of patent US7365066B2, “Pyrazolopyridine derivatives as pharmaceutical agents” (Eli Lilly and Company, priority 2002, dated 2008).

In general, IC50 refers to the concentration that gives 50% inhibition.

Experiment [1] has as its system TGF-β dependent luciferase production (p3TP-Lux reporter, Mv1Lu C1 cells). Briefly: Mv1Lu p3TP-Lux assay. The format is cell-based. The note with it: 10 pM TGF-β1, 16-20 hrs, read-out: IC50, inhibition of TGF-beta dependent luciferase production. The source says: A stable Mv1Lu clone (C1) containing the p3TP-Lux reporter was created by standard transfection and puromycin selection protocols. This stable clone was used to screen the example compounds for their ability to inhibit TGF-β dependent luciferase production as briefly described below: • 1. Plated Mv1Lu C1 cells in Wallac™ Black Isoplates. • 2. Allowed cells to adhere overnight. • 3. Removed media and replaced with 0.5% FBS DMEM media. • 4. Added the compound dilution series in 0.5% FBS/DMEM containing 1% DMSO such that the final compound concentration ranged from 20 uM to 0.1 nM and the final DMSO concentration was 0.2%. • 5. Incubated at 37° C./5% CO2 for 2 hrs. • 6. Added 0.5% FBS/DMEM as control or TGF-β1 diluted. in 0.5% FBS/DMEM (final concentration of 10 pM) to the −/+TGF-β wells respectively. • 7. Incubated for 16-20 hrs. at 37° C./5% CO2. • 8. Removed media and rinsed 1× with PBS. • 9. Removed PBS and lysed the cells with 1× Passive. Lysis Buffer (Promega) at room temperature. • 10. Counted relative luciferase activity on the MicroBeta JET by injecting Luciferase Assay Reagent II (PROMEGA).
The use of the above assay in measuring TGF-β responsive activity is described in Wrana, et al. Cell 71: 1003-1014 (1992).

For experiment [2], the target named is T1, TGF-beta Type I Receptor Kinase (RIT204D) (Homo sapiens, UniProt P36897, T204D).
T1 construct: The 6×-HIS tagged cytoplasmic kinase domain of each receptor was expressed and purified from Sf9 insect cell lysates; 6xHis; made in house; host or cells: Sf9 insect cells
T1 sequence (P36897 148-503 T204D limits assumed): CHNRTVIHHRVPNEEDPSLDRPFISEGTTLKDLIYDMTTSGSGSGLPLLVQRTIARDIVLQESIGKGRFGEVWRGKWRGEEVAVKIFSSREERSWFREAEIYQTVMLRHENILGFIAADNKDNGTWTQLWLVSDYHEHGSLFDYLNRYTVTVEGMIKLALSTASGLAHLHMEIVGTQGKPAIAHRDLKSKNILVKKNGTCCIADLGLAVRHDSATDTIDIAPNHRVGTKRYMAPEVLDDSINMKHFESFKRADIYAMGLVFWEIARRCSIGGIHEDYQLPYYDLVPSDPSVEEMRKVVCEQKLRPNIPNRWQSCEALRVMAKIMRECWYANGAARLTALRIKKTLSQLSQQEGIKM
Briefly: TGF-β Type I receptor (RIT204D) in vitro kinase reaction. Type of experiment: biochemical. The note with it: RIT204D kinase domain, 4 uM ATP, 30° C. for 1 hr; read-out: IC50, inhibition of TGF-beta Type I Receptor Kinase. The method, then: (§1) For TGF-β Type I (RIT204D) and Type II (RII WT) Receptor Kinases:
(§2) The 6×-HIS tagged cytoplasmic kinase domain of each receptor was expressed and purified from Sf9 insect cell lysates as briefly described below:
(§3) Cell pellets after 48-72 hrs of infection were lysed in lysis buffer (LB: 50 mM Tris pH 7.5, 150 mM NaCl, 50 mM NaF, 0.5% NP40 with freshly added 20 mM β-mercaptoethanol, 10 mM imidazole, 1 mM PMSF, 1×EDTA-free Complete Protease Inhibitor (Boehringer Mannheim).
(§4) Cell lysates were clarified by centrifugation and 0.45 uM filtered prior to purification by Ni/NTA affinity chromatography (Qiagen).
(§5) Equilibrate with 10 CV of LB, load sample, wash with 10 CV RIPA buffer (50 mM Tris pH 7.5, 150 mM NaCl, 1% NP40, 1 mM EDTA, 0.25% sodium deoxycholate, added fresh 20 mM β-mercaptoethanol, 1 mM PMSF), wash with 10 CV LB, wash with 10 CV 1× KB (50 mM Tris pH 7.5, 150 mM NaCl, 4 mM MgCl2, 1 mM NaF, 2 mM βmercaptoethanol), elute with a linear gradient of 1× KB containing 200 mM Imidazole.
(§6) Both enzymes were approximately 90% pure and had autophosphorylation activity.
(§7) Reactions: 170-200 nM enzyme in 1× KB, compound dilution series in 1× KB/16% DMSO (20 uM to […] final concentration with 4% DMSO final concentration), reactions started by adding ATP mix (4 uM ATP/1 uCi ^33P-γ-ATP final concentrations) in 1× KB.
(§8) Reactions were incubated at 30° C. for 1 hr RIT204D or 40 min for RII WT. Reactions were stopped and quantitated using standard TCA/BSA precipitation onto Millipore FB glass fiber filter plates and by liquid scintillation counting on a MicroBeta JET.

Experiment [3] concerns the target T2, TGF-beta Type II Receptor Kinase (RII WT) (Homo sapiens, UniProt P37173).
T2 construct: The 6×-HIS tagged cytoplasmic kinase domain of each receptor was expressed and purified from Sf9 insect cell lysates; 6xHis; made in house; host or cells: Sf9 insect cells
T2 sequence (P37173 188-567 limits assumed): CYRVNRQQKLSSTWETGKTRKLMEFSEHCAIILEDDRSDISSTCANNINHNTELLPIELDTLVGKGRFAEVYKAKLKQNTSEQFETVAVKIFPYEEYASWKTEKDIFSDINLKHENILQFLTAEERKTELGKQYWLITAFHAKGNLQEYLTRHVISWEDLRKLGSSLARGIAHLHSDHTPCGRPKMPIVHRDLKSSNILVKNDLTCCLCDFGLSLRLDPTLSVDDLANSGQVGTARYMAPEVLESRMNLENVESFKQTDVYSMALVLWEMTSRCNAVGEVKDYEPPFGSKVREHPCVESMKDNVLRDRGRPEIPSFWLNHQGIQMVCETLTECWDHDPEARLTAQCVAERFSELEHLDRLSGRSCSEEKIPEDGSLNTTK
Kind of experiment: TGF-β Type II receptor (RII WT) in vitro kinase reaction. The format is biochemical. To be noted: RII WT kinase domain, 4 uM ATP, 30° C. for 40 min; read-out: IC50, inhibition of TGF-beta Type II Receptor Kinase. The method, then:
as §1, §2, §3, §4, §5, §6, §7, §8

Another experiment deals with T3, p38α/SAPK2α (Homo sapiens, UniProt Q16539).
T3 construct: purchased Upstate Biotechnology 14-251
Kind of experiment: p38α in vitro kinase assay. The format is biochemical. The note with it: 5 nM p38α, 62.5 uM EGFR substrate, 100 uM ATP, 30° C. for 40 min. On the procedure: Active p38α/SAPK2α was purchased from Upstate Biotechnology (cat#14-251). A known p38α substrate from EGFR was used in the assay (Young, et al. (1997) JBC 272:12116-12121).
Reactions were performed in 1× kinase buffer (25 mM Tris-HCl pH 7.5, 5 mM β-glycerophosphate, 2 mM DTT, 0.1 mM Na3VO4, 10 mM MgCl2, 1 uM Microcystin) with 5 nM p38α, 62.5 uM substrate, 40 uM to 0.2 nM compound dilution series in 1×KB/16% DMSO (final 4% DMSO concentration). Reactions were started by addition of 100 uM ATP (final concentration) with 1 uCi ^33P-γ-ATP in 1×KB and incubated at 30° C. for 40 min. Reactions were stopped with H3PO4 and quantitated on Millipore PH phosphocellulose filter plates by liquid scintillation counting on a MicroBeta JET.

T3 sequence (Q16539 whole entry): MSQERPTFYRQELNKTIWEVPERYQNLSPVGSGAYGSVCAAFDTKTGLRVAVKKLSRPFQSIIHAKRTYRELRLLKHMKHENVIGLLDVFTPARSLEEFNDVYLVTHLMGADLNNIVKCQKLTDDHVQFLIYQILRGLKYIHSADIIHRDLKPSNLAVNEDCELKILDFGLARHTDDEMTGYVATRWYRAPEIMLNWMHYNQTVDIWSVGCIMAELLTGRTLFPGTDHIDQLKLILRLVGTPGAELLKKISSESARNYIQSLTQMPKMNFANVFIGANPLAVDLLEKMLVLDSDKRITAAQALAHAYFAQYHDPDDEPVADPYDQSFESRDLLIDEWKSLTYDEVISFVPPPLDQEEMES

Regarding `CCc1cccc(-c2nn3ccccc3c2-c2ccnc3cc(Cl)c(Cl)cc23)n1` [Example 43, 6,7-Dichloro-4-[2-(6-ethyl-pyridin-2-yl)-pyrazolo[1,5-a]pyridin-3-yl]-quinoline], the figures for the IC50 in experiment [1], in experiment [2] and in experiment [3] were 120 nM, 152 nM and 3170 nM, respectively.

In turn, `Cc1cccc(-c2nn3ccccc3c2-c2ccnc3cc(Cl)c(Cl)cc23)n1` [Example 45, 6,7-Dichloro-4-[2-(6-methyl-pyridin-2-yl)-pyrazolo[1,5-a]pyridin-3-yl]-quinoline] came in with an IC50 against p38α/SAPK2α of 390 nM.

As for `CCc1cccc(-c2nn3ccccc3c2-c2ccc(F)c3ccccc23)n1` [Example 47, 2-(6-Ethyl-pyridin-2-yl)-3-(4-fluoro-naphthalen-1-yl)-pyrazolo[1,5-a]pyridine], the IC50 in experiment [1] came to 100 nM; in experiment [2] it was 175 nM; in experiment [3], 5100 nM.

Consider `c1ccc(-c2nn3ccccc3c2-c2ccncc2)nc1` [Example 53, 3-Pyridin-4-yl-2-pyridin-2-yl-pyrazolo[1,5-a]pyridine], for which the figures for the IC50 in experiment [1], in experiment [2] and in experiment [3] were 487 nM, 806 nM and 20000 nM, respectively.

Turning to `CCCCc1ccc(-c2nn3ccccc3c2-c2ccnc3ccccc23)nc1` [Example 56, 4-[2-(5-Butyl-pyridin-2-yl)-pyrazolo[1,5-a]pyridin-3-yl]-quinoline], the IC50 in experiment [1] turned out to be 135 nM; in experiment [2], 102 nM; in experiment [3], 377 nM.

Regarding `Cc1cccc(-c2nn3ccccc3c2-c2ccnc3cc(C(=O)NCCN(C)C)ccc23)n1` [Example 78, 4-[2-(6-Methyl-pyridin-2-yl)-pyrazolo[1,5-a]pyridin-3-yl]-quinoline-7-carboxylic acid(2-dimethylamino-ethyl)-amide], the IC50 against p38α/SAPK2α was found to be 233 nM.

On to `Cc1cccc(-c2nn3ccccc3c2-c2ccnc3cc(OCCCN(C)C)ccc23)n1` [Example 117, Dimethyl-(3-{4-[2-(6-methyl-pyridin-2-yl)-pyrazolo[1,5-a]pyridin-3-yl]-quinolin-7-yloxy}-propyl)-amine], for which the 50% inhibitory concentration (IC50) against p38α/SAPK2α is 78 nM.
